Experimental findings from patent EP0153845A2, “CRF analogs” (THE SALK INSTITUTE FOR BIOLOGICAL STUDIES, priority 1984, dated 1985) are described below.

Molecules are shown by their SMILES. Square brackets hold non-standard residues; d marks the D form. Peptide text beside a SMILES is read from it. Nle = CCCC[C@H](N)C(=O)O

For this assay, the target named is T1, cultured rat pituitary cells (Rattus norvegicus, UniProt P35353).
T1 sequence (P35353 24-415): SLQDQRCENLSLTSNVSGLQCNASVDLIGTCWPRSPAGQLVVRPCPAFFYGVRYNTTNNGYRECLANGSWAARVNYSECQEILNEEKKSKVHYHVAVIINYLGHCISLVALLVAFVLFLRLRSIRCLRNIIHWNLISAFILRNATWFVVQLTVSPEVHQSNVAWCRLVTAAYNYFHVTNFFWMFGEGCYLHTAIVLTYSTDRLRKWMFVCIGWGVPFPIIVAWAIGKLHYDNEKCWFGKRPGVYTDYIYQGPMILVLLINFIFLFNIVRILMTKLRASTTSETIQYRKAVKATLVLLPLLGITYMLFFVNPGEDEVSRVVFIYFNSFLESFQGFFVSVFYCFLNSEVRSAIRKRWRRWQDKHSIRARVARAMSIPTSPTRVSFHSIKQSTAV
The experiment in a line: Block of ACTH and β-endorphin secretion by cultured rat pituitary cells by CRF antagonists (procedure of Example XLIII). It counts as cell-based. The note with it: general procedure of Example XLIII. The protocol: The effectiveness of synthetic CRF antagonists to block the secretion of ACTH and B-endorphin by cultured rat pituitary cells is measured using the procedure as generally set forth in Vale et al., Endocrinology, 91, 562 (1972). In vivo testing is carried out using the general procedure set forth in C. Rivier et al., Science, 218, 377 (1982).
Take `CCCC[C@H](NC(=O)[C@H](CCC(=O)O)NC(=O)[C@H](CC(C)C)NC(=O)[C@H](CCCC)NC(=O)[C@H](CCC(=O)O)NC(=O)[C@H](CCCNC(=N)N)NC(=O)[C@H](CC(C)C)NC(=O)[C@H](CC(C)C)NC(=O)[C@H](Cc1c[nH]cn1)NC(=O)[C@H](Cc1ccccc1)NC(=O)[C@@H](NC(=O)[C@H](CC(C)C)NC(=O)[C@@H](N)CC(=O)O)[C@@H](C)O)C(=O)N[C@@H](C)C(=O)N[C@@H](CCCCN)C(=O)N[C@@H](C)C(=O)N[C@@H](CCC(=O)O)C(=O)N[C@@H](CCC(N)=O)C(=O)N[C@@H](CCC(=O)O)C(=O)N[C@@H](C)C(=O)N[C@@H](CCC(=O)O)C(=O)N[C@@H](CCC(N)=O)C(=O)N[C@@H](C)C(=O)N[C@@H](C)C(=O)N[C@@H](CC(C)C)C(=O)N[C@@H](CC(N)=O)C(=O)N[C@@H](CCCNC(=N)N)C(=O)N[C@@H](CC(C)C)C(=O)N[C@@H](CC(C)C)C(=O)N[C@@H](CC(C)C)C(=O)N[C@@H](CCC(=O)O)C(=O)N[C@@H](CCC(=O)O)C(=O)N[C@@H](C)C(N)=O` [[Nie^18,21]-AHC(9-41)] (H-DLTFHLLRE[Nle]LE[Nle]AKAEQEAEQAALNRLLLEEA-NH2): the “secretion of ACTH and β-END-LI (antagonist test)” value is on record as “inhibits”. With `CCCC[C@H](N)C(=O)N[C@@H](CC(=O)O)C(=O)N[C@@H](CC(C)C)C(=O)N[C@@H](CO)C(=O)N[C@@H](Cc1ccccc1)C(=O)N[C@@H](Cc1c[nH]cn1)C(=O)N[C@@H](CC(C)C)C(=O)N[C@@H](CC(C)C)C(=O)N[C@@H](CCCNC(=N)N)C(=O)N[C@@H](CCC(=O)O)C(=O)N[C@H](C(=O)N[C@@H](CC(C)C)C(=O)N[C@@H](CCC(=O)O)C(=O)N[C@@H](CCSC)C(=O)N[C@@H](C)C(=O)N[C@@H](CCCNC(=N)N)C(=O)N[C@@H](C)C(=O)N[C@@H](CCC(=O)O)C(=O)N[C@@H](CCC(N)=O)C(=O)N[C@@H](CC(C)C)C(=O)N[C@@H](C)C(=O)N[C@@H](CCC(N)=O)C(=O)N[C@@H](CCC(N)=O)C(=O)N[C@@H](C)C(=O)N[C@@H](Cc1c[nH]cn1)C(=O)N[C@@H](CC(C)C)C(=O)N[C@@H](CC(N)=O)C(=O)N[C@@H](CCCNC(=N)N)C(=O)N[C@@H](CCCCN)C(=O)N[C@@H](CC(C)C)C(=O)N[C@@H](CCSC)C(=O)N[C@@H](CCC(=O)O)C(=O)N[C@H](C(=O)N[C@H](C(N)=O)[C@@H](C)CC)[C@@H](C)CC)C(C)C` [[Nle^8, Ser^ll, Leu^33]-hCRF(8-41)] (H-[Nle]DLSFHLLREVLEMARAEQLAQQAHLNRKLMEII-NH2) the entry was “inhibits”; with `CCCC[C@H](NC(=O)[C@H](CCC(=O)O)NC(=O)[C@H](CC(C)C)NC(=O)[C@H](CCCC)NC(=O)[C@H](CCC(=O)O)NC(=O)[C@H](CCCNC(=N)N)NC(=O)[C@H](CC(C)C)NC(=O)[C@H](CC(C)C)NC(=O)[C@H](Cc1c[nH]cn1)NC(=O)[C@H](Cc1ccccc1)NC(=O)[C@@H](NC(=O)[C@H](CC(C)C)NC(=O)[C@H](CC(=O)O)NC(=O)[C@@H](N)CC(C)C)[C@@H](C)O)C(=O)N[C@@H](C)C(=O)N[C@@H](CCCCN)C(=O)N[C@@H](C)C(=O)N[C@@H](CCC(=O)O)C(=O)N[C@@H](CCC(N)=O)C(=O)N[C@@H](CCC(=O)O)C(=O)N[C@@H](C)C(=O)N[C@@H](CCC(=O)O)C(=O)N[C@@H](CCC(N)=O)C(=O)N[C@@H](C)C(=O)N[C@@H](C)C(=O)N[C@@H](CC(C)C)C(=O)N[C@@H](CC(N)=O)C(=O)N[C@@H](CCCNC(=N)N)C(=O)N[C@@H](CC(C)C)C(=O)N[C@@H](CC(C)C)C(=O)N[C@@H](CC(C)C)C(=O)N[C@@H](CCC(=O)O)C(=O)N[C@@H](CCC(=O)O)C(=O)N[C@@H](C)C(N)=O` [[Nle^18,21]-AHC(8-41)] (H-LDLTFHLLRE[Nle]LE[Nle]AKAEQEAEQAALNRLLLEEA-NH2), “inhibits”.
